Test results taken from US20260083743A1, “NUCLEOSIDE DERIVATIVE FOR PREVENTING AND TREATING INFLAMMATION AND APPLICATION THEREOF” (WEST CHINA HOSPITAL OF SICHUAN UNIVERSITY, priority 2019, published 2026).

Assays:
C57 mice = assay: Toxicity test, 180 consecutive days by gavage in C57 mice; assay type: in vivo; conditions: 100 mg/kg/D for 180 consecutive days by gavage
Protocol: In this example, the toxicities of compounds 1-19 prepared in example 1 were analyzed.
C57 mice were given compounds 1-19 at a dose of 100 mg/kg/D for 180 consecutive days by gavage. One hour after the last administration of the drug, the mice were anesthetized by intraperitoneal injection of sodium pentobarbital (40 mg/kg), placed on a constant temperature hot plate at 37±1° C., blood was taken by cardiac puncture or pathological sections were made to detect the side effects (gastrointestinal reaction, nervous system toxicity, hematological toxicity, allergic reaction, nephrotoxicity, hepatotoxicity, rash and asthma) The side effects of aspirin, ibuprofen, indomethacin, phenylbutazone, diclofenac, piroxicam and glucocorticoid groups were investigated according to the same administration method as compounds 1-19.

arthritis model = assay: Improvement effect on arthritis, sodium iodoacetate knee joint model in SD rats; assay type: in vivo; parameters: Pathological tissue score (joint): scale not given here; conditions: gavage every day 100 mg/kg/d; 4th week after operation; n = 10
Protocol: In this example, the improvement effect of compounds 1˜19 prepared in example 1 on arthritic was measured. (1) Animals: SD rats, four rates in one cage, were fed under the conditions of constant temperature (25±2° C.) and illumination control (12 h day/night circulation). The animals were fed with standard feed, and fed for at least 7 days to adapt environment before the experiment. […] (3) SD rats were fasted for 12 hours before operation, and weighed and recorded prior to operation. The blank control group was not treated any more. […] After anesthesia, they were fixed in the supine position. 0.1 ml of 1 g/L sodium iodoacetate solution was injected into the knee joint. From the fifth day, the animals were driven to run for 30 minutes every day, and they were allowed to move freely in the cage the rest of the time. After modeling, indomethacin and compounds 1˜19 were given by gavage every day at the dose of 100 mg/kg/d. The blank control group and the model control group were given equal volume of isotonic saline. At the 4th week after operation, the articular fluid of rats in each group was extracted to measure the content of MMP-13. The rats were killed, and the subchondral bone plate of the inner condyle of the tibia of the right knee was cut and processed into specimens, and pathological scores were made.

[1] = test system: sodium taurocholate-induced pancreatitis model; assay: Improvement effect on pancreatitis, sodium taurocholate-induced model in mice; assay type: in vivo, Blab/c mice; parameters: Pancreatic histopathological injury score: scale not given here; conditions: 17.5 mg/kg caudal vein 1 h, 3 h and 6 h after model construction; after 24 hours; n = 10
Description: In this example, the improvement effect of compounds 1 19 prepared in example 1 on […] measured. (1) Animals: Adult and Healthy Male Blab/c Mice, 25 30 g. […] A model was made with sodium taurocholate. […] After anesthesia, the surgical site was sterilized with an alcohol cotton ball. The sterile gauze was placed on the surgical site. A laparotomy was made at the width of two fingers under the xiphoid process. After seeing the liver, an incision was made, the cotton swab soaked in normal saline was stretched into the enterocoelia, the duodenum was sought on the back of the liver, turned out and placed on the sterile gauze, the pancreaticobiliary duct and duodenal papilla were sought, and the needle of 1 mL syringe was used to pierce a hole on the along the direction of the nipple, a 24 G indwelling needle tube was inserted into the pancreatic duct along the nipple, and the common bile duct below the liver was closed with an arterial vascular clip, with a dose of 0.1 mL/100 g and 0.1 mL/min inject sodium taurocholate with a concentration of 3.8% at a flow rate. During this process, pay attention to adding saline to the exposed pancreas and duodenum to keep it moist. After the injection, the tube was slowly taken out and the bile duct was continued to be closed. The main tube was removed from the vascular artery clip 3 minutes later, the duodenum was also accommodated, and the abdominal cavity was sutured in double layers. The blank control group was injected with equal volume of isotonic saline. […] The blank control group and the model control group were given equal volume of isotonic saline. After 24 hours, pancreatic tissue and blood samples were taken, and the pancreatic histopathological injury score and the level of pancreatic amylase in serum were evaluated.

mouse hepatitis model = assay: Improvement effect on hepatitis, concanavalin A (ConA) mouse hepatitis model; assay type: in vivo, Blab/c mice; conditions: gavage 50 mg/kg, n = 10
Protocol: In this example, the improvement effect of compounds 1 19 prepared in example 1 on […] measured. (1) Animals: Adult and Healthy Male Blab/c Mice, 25 30 g. […] The blank control group was injected with equal volume of isotonic saline. After modeling, indomethacin and compounds 1 19 were given by gavage every day at the dose of 50 mg/kg. The blank control group and the model control group were given equal volume of isotonic saline. Eyeball blood and liver tissue were taken at 6 h, 12 h, 24 h and 48 h after administration. The levels of serum alanine aminotransferase (ALT) and aspartate aminotransferase (AST) were measured.

Compound | Occurrence rate of side effects (C57 mice) [%] | MMP-13 content in joint fluid (arthritis model) [mg/L] | Pathological tissue score (joint) (arthritis model) | Amylopsin (pancreatic amylase level in serum) [1] [KU/L] | Pancreatic histopathological injury score [1] | Aspartate aminotransferase (AST) (mouse hepatitis model; 6 h after administration) [U/L] | Serum alanine aminotransferase (ALT) (mouse hepatitis model; 6 h after administration) [U/L] | Aspartate aminotransferase (AST) (mouse hepatitis model; 12 h after administration) [U/L] | Serum alanine aminotransferase (ALT) (mouse hepatitis model; 12 h after administration) [U/L] | Aspartate aminotransferase (AST) (mouse hepatitis model; 24 h after administration) [U/L] | Serum alanine aminotransferase (ALT) (mouse hepatitis model; 24 h after administration) [U/L] | Aspartate aminotransferase (AST) (mouse hepatitis model; 48 h after administration) [U/L] | Serum alanine aminotransferase (ALT) (mouse hepatitis model; 48 h after administration) [U/L]
CC(=O)Oc1ccccc1C(=O)O [Aspirin, aspirin] | 20 |  |  |  |  |  |  |  |  |  |  |  | 
CCCCC1C(=O)N(c2ccccc2)N(c2ccccc2)C1=O [Baotaisong, phenylbutazone] | 20 |  |  |  |  |  |  |  |  |  |  |  | 
CC(C)NCCn1c(=O)c2c(ncn2C)n(C)c1=O [Compound 13, 1-(2-isopropylaminoethyl)-3,7-dimethylxanthine] |  | 98 ± 5 | 0.3 ± 0.5 | 6 ± 2 | 1.8 ± 0.2 | 63 ± 7 | 87 ± 9 | 102 ± 12 | 121 ± 13 | 132 ± 13 | 172 ± 17 | 93 ± 9 | 143 ± 12
CCCNCCn1c(=O)c2c(ncn2C)n(C)c1=O [Compound 14, 1-(2-propylaminoethyl)-3,7-dimethylxanthine] |  | 93 ± 7 | 0.7 ± 0.3 | 5 ± 3 | 1.9 ± 0.4 | 65 ± 7 | 56 ± 8 | 93 ± 12 | 134 ± 15 | 152 ± 15 | 193 ± 12 | 119 ± 12 | 132 ± 13
CC(=O)CCn1c(=O)c2c(ncn2C)n(C)c1=O [Compound 15, 1-(2-acetylethyl)-3,7-dimethylxanthine] |  | 91 ± 7 | 0.6 ± 0.5 | 5 ± 4 | 1.6 ± 0.4 | 65 ± 7 | 65 ± 8 | 118 ± 18 | 171 ± 15 | 198 ± 18 | 218 ± 26 | 129 ± 9 | 132 ± 12
CCC(=O)CCn1c(=O)c2c(ncn2C)n(C)c1=O [Compound 16, 1-(2-propionylethyl)-3,7-dimethylxanthine] |  | 93 ± 9 | 0.4 ± 0.3 | 5 ± 2 | 1.8 ± 0.3 | 59 ± 7 | 61 ± 8 | 93 ± 11 | 101 ± 16 | 121 ± 12 | 132 ± 12 | 103 ± 9 | 104 ± 13
CC(C)C(=O)NCCn1c(=O)c2c(ncn2C)n(C)c1=O [Compound 17] |  | 99 ± 6 | 0.5 ± 0.5 | 10 ± 3 | 1.5 ± 0.4 | 65 ± 5 | 79 ± 8 | 102 ± 12 | 145 ± 13 | 119 ± 12 | 163 ± 16 | 107 ± 11 | 142 ± 15
CCCC(=O)CCn1c(=O)c2c(ncn2C)n(C)c1=O [Compound 18, 1-(2-butyrylethyl)-3,7-dimethylxanthine] |  | 91 ± 8 | 0.5 ± 0.3 | 9 ± 2 | 1.3 ± 0.4 | 54 ± 7 | 67 ± 8 | 98 ± 8 | 106 ± 11 | 131 ± 8 | 157 ± 15 | 117 ± 9 | 121 ± 13
CC(C)n1c(=O)[nH]cc(F)c1=O [Compound 19, 3-isopropyl-5-fluorouracil] |  | 89 ± 6 | 0.3 ± 0.2 | 8 ± 2 | 1.0 ± 0.3 | 57 ± 7 | 55 ± 6 | 92 ± 8 | 87 ± 6 | 117 ± 9 | 139 ± 12 | 101 ± 9 | 111 ± 13
O=C(O)Cc1ccccc1Nc1c(Cl)cccc1Cl [Diclofenac, diclofenac] | 20 |  |  |  |  |  |  |  |  |  |  |  | 
CC(C)Cc1ccc(C(C)C(=O)O)cc1 (centres unmarked) [Ibuprofen, ibuprofen] | 20 |  |  |  |  |  |  |  |  |  |  |  | 
CN1C(C(=O)Nc2ccccn2)=C(O)c2ccccc2S1(=O)=O [Piroxicam, piroxicam] | 20 |  |  |  |  |  |  |  |  |  |  |  | 
